According to patent EP4458804A1, “METHOD FOR PRODUCING AN OBJECT, PHENALEN-1-ONE COMPOUND AND USE THEREOF” (TriOptoTec GmbH, priority 2023, dated 2024):

Test: Comparative example 26: highly polar photocatalysts in TPU films, 24 h immersion, film absorption before/after leaching
Type: physicochemical
Conditions: 30 min impregnation, 20h airing, immersion in distilled water 24h (procedure A), film absorption maximum before/after
Description: Es wurden TPU Folien eingesetzt und mit Imprägnierlösungen enthaltend die folgenden Farbstoffe behandelt. Nach 30 min Einwirkzeit wurden homogen gefärbte Folien erhalten.
Die Ablüftzeit nach Behandlung betrug 20h.
Anschließend wurde ein Belastungstest Immersion mit destilliertem Wasser über 24h durchgeführt (siehe oben beschriebenes Verfahren A) ). Die Folien wurden durch Absorptionsspektroskopie direkt vermessen und die Maximum der Absorption vor/nach Auswaschen verglichen. Es ergaben sich folgende relative Werte, die auf einen starken Austrag der Photokatalysatoren schließen lassen. Die Ergebnisse sind in der Tabelle 63 dargestellt. Tabelle 63: Einbindung von Photokatalysatoren in Kunsttofffolien

Molecule | Verlust durch Auswaschen [%]
2,7,12-Tris(pyridinio-p-tolyl)-17-(p-(methoxymethyl)phenyl) porphycen bromid | > 66
Cl.Cl.Cl.Cl.Cl.Cl.NCCOc1cc(/C=C/C(=O)CC(=O)/C=C/c2cc(OCCN)c(OCCN)c(OCCN)c2)cc(OCCN)c1OCCN [SACUR-05] | > 70
O=C1C=Cc2cccc3cccc1c23 [Phenalen-1-on (Verb.Bsp. 48)] | > 50
